{"source": "patent US20150017667A1", "about": "“MEANS AND METHODS FOR ASSESSING LIVER DISORDERS” (BASF SE, priority 2012, published 2015)", "key": {"[1]": {"test_system": "male rats", "experiment": "28-day repeated dose oral toxicity study (OECD 407) with GC-MS/LC-MS plasma metabolite profiling, male rats", "assay_type": "in vivo, rat", "details": "plasma", "excerpt": "Drinking water was also offered ad libitum.\nThe samples were centrifuged for generation of plasma."}, "[2]": {"test_system": "female rats", "experiment": "28-day repeated dose oral toxicity study (OECD 407) with GC-MS/LC-MS plasma metabolite profiling, female rats", "description": "A group of each 5 male and female rats was dosed once daily with the indicated compounds (see Table 5, below for compounds, applied doses and administeration details) over 28 days.\nEach dose group in the studies consisted of five rats per sex. Additional groups of each 5 male and female animals served as controls. Before starting the treatment period, animals, which were 62-64 days old when supplied, were acclimatized to the housing and environmental conditions for 7 days. All animals of the animal population were kept under the same constant temperature (20-24±3° C.) and the same constant humidity (30-70%). The animals of the animal population were fed ad libitum. The food to be used was essentially free of chemical or microbial contaminants. Drinking water was also offered ad libitum. Accordingly, the water was free of chemical and microbial contaminants as laid down in the European Drinking Water Directive 98/83/EG. The illumination period was 12 hours light followed by 12 hours darkness (12 hours light, from 6:00 to 18:00, and 12 hours darkness, from 18:00 to 6:00).\nIn the morning of day 7, 14, and 28, blood was taken from the retroorbital venous plexus from fasted anaesthetized animals. From each animal, 1 ml of blood was collected with EDTA as anticoagulant. The samples were centrifuged for generation of plasma. All plasma samples were covered with a N2 atmosphere and then stored at −80° C. until analysis.\nFor mass spectrometry-based metabolite profiling analyses plasma samples were extracted and a polar and a non-polar (lipid) fraction was obtained. For GC-MS analysis, the non-polar fraction was treated with methanol under acidic conditions to yield the fatty acid methyl esters. Both fractions were further derivatised with O-methyl-hydroxyamine hydrochloride and pyridine to convert Oxogroups to O-methyloximes and subsequently with a silylating agent before analysis. In LC-MS analysis, both fractions were reconstituted in appropriate solvent mixtures. HPLC was performed by gradient elution on reversed phase separation columns.\nFollowing comprehensive analytical validation steps, the data for each analyte were normalized against data from pool samples. These samples were run in parallel through the whole process to account for process variability. The significance of treatment group values specific for sex, treatment duration and metabolite was determined by comparing means of the treated groups to the means of the respective untreated control groups using WELCH-test and quantified with treatment ratios versus control and p-values."}}, "note": "Marks after values point to notes of the source that are not given here.", "data": [{"smiles": "Cc1cccc(C)c1N(Cn1cccn1)C(=O)CCl", "note": "[Metazachlor, N-(2,6-dimethylphenyl)-N-(pyrazol-1-ylmethyl)chloroacetamid]", "values": [{"measurement": "4-Hydroxyphenylpyruvate, ratio versus control", "setting": "[1]; day 7", "result": "2.23*"}, {"measurement": "Glycerol-3-phosphate, polar fraction, ratio versus control", "setting": "[1]; day 7", "result": 1.04}, {"measurement": "Phosphatidylcholine (C16:1,C18:2), ratio versus control", "setting": "[1]; day 7", "result": "1.29*"}, {"measurement": "Phosphatidylcholine (C18:0,C18:1), ratio versus control", "setting": "[1]; day 7", "result": "1.56*"}, {"measurement": "Phosphatidylcholine (C18:0,C18:2), ratio versus control", "setting": "[1]; day 7", "result": "1.4*"}, {"measurement": "Phytosphingosine, ratio versus control", "setting": "[1]; day 7", "result": "2.08*"}, {"measurement": "Lysophosphatidylcholine (C18:1), ratio versus control", "setting": "[1]; day 7 (Table 2)", "result": "1.1*"}, {"measurement": "Phosphatidylcholine (C16:0,C20:5), ratio versus control", "setting": "[1]; day 7 (Table 2)", "result": 1}, {"measurement": "alpha-Tocopherol, ratio versus control", "setting": "[1]; day 7 (Table 2)", "result": "1.8*"}, {"measurement": "4-Hydroxyphenylpyruvate, ratio versus control", "setting": "[1]; day 14", "result": "2.59*"}, {"measurement": "Glycerol-3-phosphate, polar fraction, ratio versus control", "setting": "[1]; day 14", "result": "1.63*"}, {"measurement": "Phosphatidylcholine (C16:1,C18:2), ratio versus control", "setting": "[1]; day 14", "result": "2.11*"}, {"measurement": "Phosphatidylcholine (C18:0,C18:1), ratio versus control", "setting": "[1]; day 14", "result": "2.37*"}, {"measurement": "Phosphatidylcholine (C18:0,C18:2), ratio versus control", "setting": "[1]; day 14", "result": "1.55*"}, {"measurement": "Phytosphingosine, ratio versus control", "setting": "[1]; day 14", "result": "2.86*"}, {"measurement": "Lysophosphatidylcholine (C18:1), ratio versus control", "setting": "[1]; day 14 (Table 2)", "result": "1.49*"}, {"measurement": "Phosphatidylcholine (C16:0,C20:5), ratio versus control", "setting": "[1]; day 14 (Table 2)", "result": "1.47*"}, {"measurement": "alpha-Tocopherol, ratio versus control", "setting": "[1]; day 14 (Table 2)", "result": "1.3*"}, {"measurement": "4-Hydroxyphenylpyruvate, ratio versus control", "setting": "[1]; day 28", "result": "3.26*"}, {"measurement": "Glycerol-3-phosphate, polar fraction, ratio versus control", "setting": "[1]; day 28", "result": "1.52*"}, {"measurement": "Phosphatidylcholine (C16:1,C18:2), ratio versus control", "setting": "[1]; day 28", "result": "2.32*"}, {"measurement": "Phosphatidylcholine (C18:0,C18:1), ratio versus control", "setting": "[1]; day 28", "result": "2.06*"}, {"measurement": "Phosphatidylcholine (C18:0,C18:2), ratio versus control", "setting": "[1]; day 28", "result": "1.51*"}, {"measurement": "Phytosphingosine, ratio versus control", "setting": "[1]; day 28", "result": "3.2*"}, {"measurement": "Lysophosphatidylcholine (C18:1), ratio versus control", "setting": "[1]; day 28 (Table 2)", "result": "1.33*"}, {"measurement": "Phosphatidylcholine (C16:0,C20:5), ratio versus control", "setting": "[1]; day 28 (Table 2)", "result": "1.67*"}, {"measurement": "alpha-Tocopherol, ratio versus control", "setting": "[1]; day 28 (Table 2)", "result": "1.49*"}, {"measurement": "3-O-Methylsphingosine (d18:1), ratio versus control", "setting": "[2]; day 7", "result": "5.2*"}, {"measurement": "5-O-Methylsphingosine (d18:1), ratio versus control", "setting": "[2]; day 7", "result": "5.11*"}, {"measurement": "14-Methylhexadecanoic acid, ratio versus control", "setting": "[2]; day 7", "result": "1.18*"}, {"measurement": "Behenic acid (C22:0), ratio versus control", "setting": "[2]; day 7", "result": "2.8*"}, {"measurement": "Cholesterol, ratio versus control", "setting": "[2]; day 7", "result": "2.52*"}, {"measurement": "Coenzyme Q9, ratio versus control", "setting": "[2]; day 7", "result": "2.3*"}, {"measurement": "DAG (C18:1,C18:2), ratio versus control", "setting": "[2]; day 7", "result": "1.52*"}, {"measurement": "Eicosanoic acid (C20:0), ratio versus control", "setting": "[2]; day 7", "result": "2.17*"}, {"measurement": "Glucose, ratio versus control", "setting": "[2]; day 7", "result": "1.4*"}, {"measurement": "Glycerol phosphate, lipid fraction, ratio versus control", "setting": "[2]; day 7", "result": "2.41*"}, {"measurement": "Glycerol, lipid fraction, ratio versus control", "setting": "[2]; day 7", "result": "1.89*"}, {"measurement": "Glycerol-3-phosphate, polar fraction, ratio versus control", "setting": "[2]; day 7", "result": "1.61*"}, {"measurement": "Heptadecanoic acid (C17:0), ratio versus control", "setting": "[2]; day 7", "result": "1.53*"}, {"measurement": "Linoleic acid (C18:cis[9,12]2), ratio versus control", "setting": "[2]; day 7", "result": "2.33*"}, {"measurement": "Nervonic acid (C24:cis[15]1), ratio versus control", "setting": "[2]; day 7", "result": "4.5*"}, {"measurement": "Palmitic acid (C16:0), ratio versus control", "setting": "[2]; day 7", "result": "1.96*"}, {"measurement": "Phosphatidylcholine (C16:0,C20:5), ratio versus control", "setting": "[2]; day 7", "result": "1.18*"}, {"measurement": "TAG (C16:0,C18:1,C18:3), ratio versus control", "setting": "[2]; day 7", "result": "2.84*"}, {"measurement": "TAG (C16:0,C18:2), ratio versus control", "setting": "[2]; day 7", "result": "2.65*"}, {"measurement": "TAG (C18:1,C18:2), ratio versus control", "setting": "[2]; day 7", "result": "2.65*"}, {"measurement": "TAG (C18:2,C18:2), ratio versus control", "setting": "[2]; day 7", "result": "2.42*"}, {"measurement": "TAG (C18:2,C18:3), ratio versus control", "setting": "[2]; day 7", "result": "2.42*"}, {"measurement": "TAG No 01, ratio versus control", "setting": "[2]; day 7", "result": "1.87*"}, {"measurement": "TAG No 05, ratio versus control", "setting": "[2]; day 7", "result": "2.27*"}, {"measurement": "TAG No 07, ratio versus control", "setting": "[2]; day 7", "result": 1.97}, {"measurement": "dihomo-gamma-Linolenic acid (C20:cis[8,11,14]3), ratio versus control", "setting": "[2]; day 7", "result": "2.69*"}, {"measurement": "erythro-Sphingosine, ratio versus control", "setting": "[2]; day 7", "result": "4.06*"}, {"measurement": "3-O-Methylsphingosine (d18:1), ratio versus control", "setting": "[2]; day 14", "result": "7.58*"}, {"measurement": "5-O-Methylsphingosine (d18:1), ratio versus control", "setting": "[2]; day 14", "result": "7.74*"}, {"measurement": "14-Methylhexadecanoic acid, ratio versus control", "setting": "[2]; day 14", "result": "1.17*"}, {"measurement": "Behenic acid (C22:0), ratio versus control", "setting": "[2]; day 14", "result": "4.3*"}, {"measurement": "Cholesterol, ratio versus control", "setting": "[2]; day 14", "result": "2.96*"}, {"measurement": "Coenzyme Q9, ratio versus control", "setting": "[2]; day 14", "result": "2.09*"}, {"measurement": "DAG (C18:1,C18:2), ratio versus control", "setting": "[2]; day 14", "result": "1.92*"}, {"measurement": "Eicosanoic acid (C20:0), ratio versus control", "setting": "[2]; day 14", "result": "3.19*"}, {"measurement": "Glucose, ratio versus control", "setting": "[2]; day 14", "result": "1.17*"}, {"measurement": "Glycerol phosphate, lipid fraction, ratio versus control", "setting": "[2]; day 14", "result": "3.43*"}, {"measurement": "Glycerol, lipid fraction, ratio versus control", "setting": "[2]; day 14", "result": "2.34*"}, {"measurement": "Glycerol-3-phosphate, polar fraction, ratio versus control", "setting": "[2]; day 14", "result": "1.72*"}, {"measurement": "Heptadecanoic acid (C17:0), ratio versus control", "setting": "[2]; day 14", "result": "1.98*"}, {"measurement": "Linoleic acid (C18:cis[9,12]2), ratio versus control", "setting": "[2]; day 14", "result": "3.2*"}, {"measurement": "Nervonic acid (C24:cis[15]1), ratio versus control", "setting": "[2]; day 14", "result": "5.92*"}, {"measurement": "Palmitic acid (C16:0), ratio versus control", "setting": "[2]; day 14", "result": "2.83*"}, {"measurement": "Phosphatidylcholine (C16:0,C20:5), ratio versus control", "setting": "[2]; day 14", "result": "1.46*"}, {"measurement": "TAG (C16:0,C18:1,C18:3), ratio versus control", "setting": "[2]; day 14", "result": "3.67*"}, {"measurement": "TAG (C16:0,C18:2), ratio versus control", "setting": "[2]; day 14", "result": "3.69*"}, {"measurement": "TAG (C18:1,C18:2), ratio versus control", "setting": "[2]; day 14", "result": "2.74*"}, {"measurement": "TAG (C18:2,C18:2), ratio versus control", "setting": "[2]; day 14", "result": "2.51*"}, {"measurement": "TAG (C18:2,C18:3), ratio versus control", "setting": "[2]; day 14", "result": "2.89*"}, {"measurement": "TAG No 01, ratio versus control", "setting": "[2]; day 14", "result": "1.99*"}, {"measurement": "TAG No 05, ratio versus control", "setting": "[2]; day 14", "result": "4.68*"}, {"measurement": "TAG No 07, ratio versus control", "setting": "[2]; day 14", "result": "3.87*"}, {"measurement": "dihomo-gamma-Linolenic acid (C20:cis[8,11,14]3), ratio versus control", "setting": "[2]; day 14", "result": "4.76*"}, {"measurement": "erythro-Sphingosine, ratio versus control", "setting": "[2]; day 14", "result": "5.79*"}, {"measurement": "3-O-Methylsphingosine (d18:1), ratio versus control", "setting": "[2]; day 28", "result": "5.44*"}, {"measurement": "5-O-Methylsphingosine (d18:1), ratio versus control", "setting": "[2]; day 28", "result": "5.42*"}, {"measurement": "14-Methylhexadecanoic acid, ratio versus control", "setting": "[2]; day 28", "result": "1.19*"}, {"measurement": "Behenic acid (C22:0), ratio versus control", "setting": "[2]; day 28", "result": "3.4*"}, {"measurement": "Cholesterol, ratio versus control", "setting": "[2]; day 28", "result": "2.72*"}, {"measurement": "Coenzyme Q9, ratio versus control", "setting": "[2]; day 28", "result": "1.75*"}, {"measurement": "DAG (C18:1,C18:2), ratio versus control", "setting": "[2]; day 28", "result": "2.94*"}, {"measurement": "Eicosanoic acid (C20:0), ratio versus control", "setting": "[2]; day 28", "result": "2.49*"}, {"measurement": "Glucose, ratio versus control", "setting": "[2]; day 28", "result": 0.99}, {"measurement": "Glycerol phosphate, lipid fraction, ratio versus control", "setting": "[2]; day 28", "result": "2.93*"}, {"measurement": "Glycerol, lipid fraction, ratio versus control", "setting": "[2]; day 28", "result": "3.13*"}, {"measurement": "Glycerol-3-phosphate, polar fraction, ratio versus control", "setting": "[2]; day 28", "result": "1.55*"}, {"measurement": "Heptadecanoic acid (C17:0), ratio versus control", "setting": "[2]; day 28", "result": "2.08*"}, {"measurement": "Linoleic acid (C18:cis[9,12]2), ratio versus control", "setting": "[2]; day 28", "result": "3.43*"}, {"measurement": "Nervonic acid (C24:cis[15]1), ratio versus control", "setting": "[2]; day 28", "result": "5.03*"}, {"measurement": "Palmitic acid (C16:0), ratio versus control", "setting": "[2]; day 28", "result": "2.86*"}, {"measurement": "Phosphatidylcholine (C16:0,C20:5), ratio versus control", "setting": "[2]; day 28", "result": "1.26*"}, {"measurement": "TAG (C16:0,C18:1,C18:3), ratio versus control", "setting": "[2]; day 28", "result": "5.22*"}, {"measurement": "TAG (C16:0,C18:2), ratio versus control", "setting": "[2]; day 28", "result": "3.73*"}, {"measurement": "TAG (C18:1,C18:2), ratio versus control", "setting": "[2]; day 28", "result": "3.09*"}, {"measurement": "TAG (C18:2,C18:2), ratio versus control", "setting": "[2]; day 28", "result": "4.34*"}, {"measurement": "TAG (C18:2,C18:3), ratio versus control", "setting": "[2]; day 28", "result": "4.18*"}, {"measurement": "TAG No 01, ratio versus control", "setting": "[2]; day 28", "result": "3.16*"}, {"measurement": "TAG No 05, ratio versus control", "setting": "[2]; day 28", "result": "5.27*"}, {"measurement": "TAG No 07, ratio versus control", "setting": "[2]; day 28", "result": "4.1*"}, {"measurement": "dihomo-gamma-Linolenic acid (C20:cis[8,11,14]3), ratio versus control", "setting": "[2]; day 28", "result": "4.48*"}, {"measurement": "erythro-Sphingosine, ratio versus control", "setting": "[2]; day 28", "result": "4.33*"}]}]}
